Values of other authors as cited in patent US20050255161A1, “Method for the long term stabilization of labile compounds at room temperature in pharmaceutical preparations containing water” (priority 2004, published 2005).
Where two headings read alike, the source gives them in different places.

CCCCC[C@H](O)/C=C/[C@H]1[C@H](O)CC(=O)[C@@H]1CCCCCCC(=O)O [prostaglandin E1, (13E)-(15S)-11alpha, 15-dihydroxy-9-oxoprost-13-enoate]
solubility in aqueous systems (low acidic medium): ~10 μg's | solubility in aqueous systems (slightly alkaline medium): ~100 μg's
